Each structure is given as a SMILES string. Where a name gives a salt, the structure may show the parent alone.

The Ki is a measure of affinity in units of concentration, obtained from inhibition or displacement.

For one experiment, the target named is T1, PknB (Mycobacterium tuberculosis, UniProt P9WI81).
T1 construct: made in house
T1 sequence (P9WI81 whole entry): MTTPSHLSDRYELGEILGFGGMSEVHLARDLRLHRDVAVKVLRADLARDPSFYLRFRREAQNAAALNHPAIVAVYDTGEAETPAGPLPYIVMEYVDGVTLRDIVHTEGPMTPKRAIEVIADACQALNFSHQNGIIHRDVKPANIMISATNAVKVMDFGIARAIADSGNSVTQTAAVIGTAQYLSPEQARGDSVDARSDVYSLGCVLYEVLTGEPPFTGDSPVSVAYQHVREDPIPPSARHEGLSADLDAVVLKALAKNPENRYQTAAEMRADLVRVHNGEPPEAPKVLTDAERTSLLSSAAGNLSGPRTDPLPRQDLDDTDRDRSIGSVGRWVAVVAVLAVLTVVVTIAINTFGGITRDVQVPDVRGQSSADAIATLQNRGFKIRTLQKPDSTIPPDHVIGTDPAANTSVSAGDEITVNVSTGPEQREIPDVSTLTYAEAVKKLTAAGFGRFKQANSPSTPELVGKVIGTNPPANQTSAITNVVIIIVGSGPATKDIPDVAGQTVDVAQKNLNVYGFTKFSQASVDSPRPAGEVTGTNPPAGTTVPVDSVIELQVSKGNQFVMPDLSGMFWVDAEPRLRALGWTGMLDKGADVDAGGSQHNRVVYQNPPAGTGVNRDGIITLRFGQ
Kind of experiment: biochemical. Also on record: species or system M. tuberculosis.
Conditions: not given
Take `C#Cc1cnc(-c2ccc(C(=O)OC)s2)nc1Nc1cc(C2CC2)[nH]n1` [Compound 151, Methyl 5-(4-(5-cyclopropyl-1H-pyrazol-3-ylamino)-5-ethynylpyrimidin-2-yl)thiophene-2-carboxylate hydrochloride]: the “Ki Values” is on record as “A**, A*”.
The molecule `COC(=O)c1ccc(-c2ncc(Cl)c(Nc3cc(C4CC4)n[nH]3)n2)s1` [Compound 154, Methyl5-(5-chloro-4-(3-cyclopropyl-1H-pyrazol-5-ylamino)pyrimidin-2-yl)thiophene-2-carboxylate hydrochloride] yielded a Ki of 0.01 to 0.05 µM.

Still in this experiment, the particulars now being: 3 nM PknB, 6 uM GarA, 3 μM ATP, 30 min; competitive tight-binding fit; several symbols in a cell = repeat determinations.
`Nc1cnc(-c2ccccc2)nc1Nc1cc(C2CC2)[nH]n1` [Compound 5, N-(5-cyclopropyl-1H-pyrazol-3-yl)-2-phenylpyrimidine-4,5-diamine]: the “Ki Values” is “A*, A”.
For the molecule `Cc1cnc(-c2cccs2)nc1Nc1cc(C2CC2)[nH]n1` [Compound 38, N-(5-cyclopropyl-1H-pyrazol-3-yl)-5-methyl-2-(thiophen-2-yl)pyrimidin-4-amine], the “Ki Values” was “A*, A”.
Regarding `CC(=O)c1ccc(-c2ncc(Cl)c(Nc3cc(C4CC4)[nH]n3)n2)s1` [Compound 116, 1-(5-(5-chloro-4-(5-cyclopropyl-1H-pyrazol-3-ylamino)pyrimidin-2-yl)thiophen-2-yl)ethanone], the “Ki Values” was “A**, A*”.
As to `CC(C)(O)c1ccc(-c2ncc(Cl)c(Nc3cc(C4CC4)[nH]n3)n2)s1` [Compound 87, 2-(5-(5-chloro-4-(5-cyclopropyl-1H-pyrazol-3-ylamino)pyrimidin-2-yl)thiophen-2-yl)propan-2-ol], the “Ki Values” was “A**, A*”.
Regarding `C#Cc1cnc(-c2ccc(S(=O)(=O)NC(=O)C(C)(C)C)s2)nc1Nc1cc(C2CC2)[nH]n1` [Compound 201, N-[[5-[4-[(5-cyclopropyl-1H-pyrazol-3-yl)amino]-5-ethynyl-pyrimidin-2-yl]-2-thienyl]sulfonyl]-2,2-dimethyl-propanamide], the “Ki Values” is listed as “B*, B*, B”.
`CCc1cnc(N2CCCCC2)nc1Nc1cc(C2CC2)[nH]n1` [Compound 45, N-(5-cyclopropyl-1H-pyrazol-3-yl)-5-ethyl-2-(1-piperidyl)pyrimidin-4-amine]: the “Ki Values” is recorded as “C, D”.

Still in this experiment, the particulars now being: 3 nM PknB, 6 uM GarA, 3 μM ATP, 30 min; competitive tight-binding fit; several symbols in a cell = repeat determinations; read-out: Ki Values.
Regarding `Cc1cnc(-c2ccc(C(O)CO)s2)nc1Nc1cc(C2CC2)[nH]n1` (stereo not shown) [Compound 326, 1-[5-[4-[(5-cyclopropyl-1H-pyrazol-3-yl)amino]-5-methyl-pyrimidin-2-yl]-2-thienyl]ethane-1,2-diol], the Ki was 0.01 to 0.05 µM.
For the molecule `O=S(=O)(NCC(F)(F)F)c1ccc(-c2ncc(Cl)c(Nc3cc(C4CC4)[nH]n3)n2)s1` [Compound 158, 5-[5-chloro-4-[(5-cyclopropyl-1H-pyrazol-3-yl)amino]-pyrimidin-2-yl]-N-(2,2,2-trifluoroethyl)thiophene-2-sulfonamide], the Ki fell in the range of 0.01 to 0.05 µM.
The same measure, in the same setting: the result for `COC(=O)CC1c2cnc(-c3ccccc3)nc2Nc2cc(C3CC3)nn21` (stereo not shown) [Compound 49, methyl 2-(cyclopropyl-phenyl-BLAHyl)acetate] reads more than 4 µM; that for `c1cc(Nc2cc(C3CC3)[nH]n2)nc(Nc2ccc3[nH]ncc3c2)n1` [Compound 13, N4-(5-cyclopropyl-1H-pyrazol-3-yl)-N2-(1H-indazol-5-yl)pyrimidine-2,4-diamine], 0.01 to 0.05 µM; that for `Brc1c(C2CC2)n[nH]c1Nc1ccnc(-c2ccccc2)n1` [Compound 7, N-(4-bromo-5-cyclopropyl-2H-pyrazol-3-yl)-2-phenyl-pyrimidin-4-amine], more than 4 µM.
Consider `C#Cc1cnc(-c2ccc(S(C)(=O)=O)cc2)nc1Nc1cc(C2CC2)[nH]n1` [Compound 153, N-(5-Cyclopropyl-1H-pyrazol-3-yl)-5-ethynyl-2-(4-(methylsulfonyl)phenyl)pyrimidin-4-amine], for which the Ki is 0.01 to 0.05 µM.
Take `NS(=O)(=O)c1cccc(Nc2nccc(Nc3cc(C4CC4)n[nH]3)n2)c1` [Compound 82]: the Ki was 0.05 to 0.1 µM.
Same read-out and setting: the result for `CSc1cc(Nc2cc(C3CC3)n[nH]2)nc(-c2ccc(S(N)(=O)=O)s2)n1` [Compound 291, 5-[4-[(5-cyclopropyl-2H-pyrazol-3-yl)amino]-6-methylsulfanyl-pyrimidin-2-yl]thiophene-2-sulfonamide] reads 0.1 to 0.5 µM; that for `CS(=O)(=O)NCc1ccc(-c2ncc(Cl)c(Nc3cc(C4CC4)n[nH]3)n2)s1` [Compound 280, N-[[5-[5-chloro-4-[(5-cyclopropyl-2H-pyrazol-3-yl)amino]-pyrimidin-2-yl]-2-thienyl]methyl]methanesulfonamide], 0.01 to 0.05 µM; that for `Clc1cnc(Nc2ccc3[nH]ncc3c2)nc1Nc1cc(C2CC2)[nH]n1` [Compound 62, 5-chloro-N4-(5-cyclopropyl-1H-pyrazol-3-yl)-N2-(1H-indazol-5-yl)pyrimidine-2,4-diamine], more than 4 µM.
Turning to `N#CCc1ccc(-c2ncc(N)c(Nc3cc(C4CC4)[nH]n3)n2)cc1` [Compound 92, 2-(4-(5-amino-4-(5-cyclopropyl-1H-pyrazol-3-ylamino)pyrimidin-2-yl)phenyl)acetonitrile], the Ki fell in the range of 0.01 to 0.05 µM.
Still for that read-out and setting: the result for `c1ccc(-c2nccc(Nc3cc(C4CC4)n[nH]3)n2)cc1` [Compound 2, N-(5-cyclopropyl-2H-pyrazol-3-yl)-2-phenyl-pyrimidin-4-amine] reads 0.05 to 0.1 µM; that for `NS(=O)(=O)c1ccc(-c2ncc(Cl)c(Nc3cc(C4CCN(C(=O)OCc5ccccc5)C4)n[nH]3)n2)s1` (stereo not shown) [Compound 262, benzyl 3-[5-[[5-chloro-2-(5-sulfamoyl-2-thienyl)-pyrimidin-4-yl]amino]-1H-pyrazol-3-yl]pyrrolidine-1-carboxylate], 1 to 2 µM; that for `CC(C)(C)NS(=O)(=O)c1ccc(-c2cccc(Nc3cc(C4CC4)[nH]n3)n2)s1` [Compound 271, 5-[6-[(5-cyclopropyl-1H-pyrazol-3-yl)amino]-2-pyridyl]-N-tert-butyl-thiophene-2-sulfonamide], 0.01 to 0.05 µM.
On to `COCc1cnc(N2CCC(N3CCCCC3)CC2)nc1Nc1cc(C2CC2)[nH]n1` [Compound 71, N-(5-cyclopropyl-1H-pyrazol-3-yl)-5-(methoxymethyl)-2-[4-(1-piperidyl)-1-piperidyl]-pyrimidin-4-amine], for which the inhibition constant Ki lay in the range of 1 to 2 µM.
Still for that read-out and setting: the result for `NC(=O)c1cccc(Nc2nccc(Nc3cc(C4CC4)[nH]n3)n2)c1` [Compound 125, 3-[[4-[(5-cyclopropyl-1H-pyrazol-3-yl)amino]pyrimidin-2-yl]amino]benzamide] reads 0.5 to 1 µM; that for `Cc1cnc(-c2cccc(S(N)(=O)=O)c2)nc1Nc1cc(C2CC2)[nH]n1` [Compound 31, 3-[4-[(5-cyclopropyl-1H-pyrazol-3-yl)amino]-5-methyl-pyrimidin-2-yl]benzenesulfonamide], 0.01 to 0.05 µM; that for `OC1CCCc2nc(-c3ncc(Cl)c(Nc4cc(C5CC5)[nH]n4)n3)sc21` (stereo not shown) [Compound 310, 2-[5-chloro-4-[(5-cyclopropyl-1H-pyrazol-3-yl)amino]-pyrimidin-2-yl]-4,5,6,7-tetrahydrobenzothiazol-7-ol], 0.1 to 0.5 µM.
With `C[C@@H]1C[C@H]1c1cc(Nc2nc(-c3ccc(S(N)(=O)=O)s3)ncc2Cl)n[nH]1` (relative stereo) [Compound 320, 5-(5-chloro-4-(5-(trans-2-methylcyclopropyl)-1H-pyrazol-3-ylamino)pyrimidin-2-yl)thiophene-2-sulfonamide], the Ki lay within 0.001 to 0.01 µM.
With `NS(=O)(=O)C/C=C/c1nccc(Nc2cc(C3CC3)[nH]n2)n1` [Compound 54, 3-[4-[(5-cyclopropyl-1H-pyrazol-3-yl)amino]pyrimidin-2-yl]prop-2-ene-1-sulfonamide], the Ki lay in the range of 1 to 2 µM.
With `CC(=O)Nc1cnc(-c2ccccc2)nc1Nc1cc(C2CC2)n(C(C)=O)n1` [Compound 3, N-[4-[(1-acetyl-5-cyclopropyl-pyrazol-3-yl)amino]-2-phenyl-pyrimidin-5-yl]acetamide], the Ki is more than 4 µM.
Consider `C#Cc1cnc(N2CCCN(C(C)=O)CC2)nc1Nc1cc(C2CC2)n[nH]1` [Compound 258, 1-[4-[4-[(5-cyclopropyl-2H-pyrazol-3-yl)amino]-5-ethynyl-pyrimidin-2-yl]-1,4-diazepan-1-yl]ethanone], for which the Ki fell in the range of 0.1 to 0.5 µM.
`NS(=O)(=O)c1ccccc1-c1ncc(Cl)c(Nc2cc(C3CC3)[nH]n2)n1` [Compound 155, 2-[5-chloro-4-[(5-cyclopropyl-1H-pyrazol-3-yl)amino]-pyrimidin-2-yl]benzenesulfonamide]: the Ki was more than 4 µM.
Same read-out and setting: in the case of `N#CCc1ccc(-c2ncc(Cl)c(Nc3cc(C4CC4)n[nH]3)n2)s1` [Compound 143, 2-(5-(5-chloro-4-(3-cyclopropyl-1H-pyrazol-5-ylamino)pyrimidin-2-yl)thiophen-2-yl)acetonitrile] it was 0.001 to 0.01 µM; in that of `C#Cc1cnc(-c2ccc([C@@H](O)C(C)C)s2)nc1Nc1cc(C2CC2)n[nH]1` (stereo in doubt) [Compound 210, 1-[5-[4-[(5-cyclopropyl-2H-pyrazol-3-yl)amino]-5-ethynyl-pyrimidin-2-yl]-2-thienyl]-2-methyl-propan-1-ol], 0.01 to 0.05 µM; in that of `Clc1cnc(-c2cccs2)nc1Nc1cc(C2CC2)[nH]n1` [Compound 29, 5-chloro-N-(5-cyclopropyl-1H-pyrazol-3-yl)-2-(thiophen-2-yl)pyrimidin-4-amine], 0.05 to 0.1 µM.
As for `NS(=O)(=O)c1ccc(-c2nc(Nc3cc(C4CC4)n[nH]3)ncc2Cl)s1` [Compound 314, 5-[5-chloro-2-[(5-cyclopropyl-2H-pyrazol-3-yl)amino]-pyrimidin-4-yl]thiophene-2-sulfonamide], the Ki is 0.001 to 0.01 µM.
Consider `C#Cc1cnc(-c2ccc(C(O)CCOC(C)=O)s2)nc1Nc1cc(C2CC2)[nH]n1` (stereo not shown) [Compound 243, 3-(5-(4-(5-cyclopropyl-1H-pyrazol-3-ylamino)-5-ethynylpyrimidin-2-yl)thiophen-2-yl)-3-hydroxypropyl acetate], for which the Ki was 0.01 to 0.05 µM.
Still for that read-out and setting: the result for `C#Cc1cnc(-c2cccc(S(N)(=O)=O)c2)nc1Nc1cc(C2CC2)[nH]n1` [Compound 110, 3-(4-(5-cyclopropyl-1H-pyrazol-3-ylamino)-5-ethynylpyrimidin-2-yl)benzene sulfonamide] reads 0.01 to 0.05 µM.

Values taken from patent US20110053916A1 (Vertex Pharmaceuticals Incorporated, priority 2009, published 2011).
